Earlier results, collected in US7208580B2, “Atomic structure of the hemalbumin complex and its use in designing therapeutic compounds” (New Century Pharmaceuticals, Inc., priority 2002, dated 2007).

Target: human albumin (Homo sapiens, UniProt P02768)
Sequence (P02768 25-609): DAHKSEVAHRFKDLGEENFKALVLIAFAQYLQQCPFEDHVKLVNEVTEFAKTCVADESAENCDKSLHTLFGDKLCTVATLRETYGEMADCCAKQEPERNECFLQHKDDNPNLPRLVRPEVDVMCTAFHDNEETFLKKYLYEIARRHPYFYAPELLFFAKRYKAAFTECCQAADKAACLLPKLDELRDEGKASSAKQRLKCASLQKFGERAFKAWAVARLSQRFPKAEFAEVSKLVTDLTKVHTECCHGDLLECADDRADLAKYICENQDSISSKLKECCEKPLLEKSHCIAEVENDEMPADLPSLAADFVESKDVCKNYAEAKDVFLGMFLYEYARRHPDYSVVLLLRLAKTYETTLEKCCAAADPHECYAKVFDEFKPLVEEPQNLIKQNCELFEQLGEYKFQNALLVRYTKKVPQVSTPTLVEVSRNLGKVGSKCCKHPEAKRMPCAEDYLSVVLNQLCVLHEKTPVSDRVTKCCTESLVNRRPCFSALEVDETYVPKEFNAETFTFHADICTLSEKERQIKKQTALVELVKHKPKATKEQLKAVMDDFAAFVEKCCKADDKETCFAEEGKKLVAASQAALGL

## C=CC1=C(C)c2cc3[nH]c(cc4nc(cc5[nH]c(cc1n2)c(C)c5CCC(=O)O)C(CCC(=O)O)=C4C)c(C)c3C=C [protoporphyrin, Fe^III-Protoporphyrin-IX]
Albumins from primates, printed as '1×10^8 Ka'
  binding constants for protoporphyrin at the specialized high affinity site: ~1×10^8

## Fe^III Protoporphyrin-IX (Cl) [Hemin]
Hemin binding to human albumin, association constant from reference (9)
  KA, single high affinity site: 1.1e+08 M⁻¹
